Laboratory results reported in ChEMBL document CHEMBL1137005 (Bioorg Med Chem Lett, 2009).
Blank lines part the entries; values can stand above or below the molecule they belong to. Calls of active or inactive are those of the source. The rule behind the calls is not given here.

How the values were obtained:
Blood = assay: Inhibition of DHET production in rat whole blood at 1 uM after 1 hr; type: functional; parameters: Activity: scale not given: the % may be the effect or the level left
Cytochrome P450 2D6 = Cytochrome P450 2D6 (Homo sapiens, UniProt P10635); assay: Inhibition of CYP2D6; type: ADME
[1] = Binding affinity to […] channel diltiazem binding site
[2] = Volume of distribution at steady state in rat at 1 mg/kg, iv and 2 mg/kg, po; type: ADME, organism-based; conditions: in vivo, read-out: Vdss
Epoxide hydrolase 1 = biological target: T1, Epoxide hydrolase 1 (Homo sapiens, UniProt P07099); assay: Inhibition of human microsomal epoxide hydrolase
T1 sequence (P07099 whole entry): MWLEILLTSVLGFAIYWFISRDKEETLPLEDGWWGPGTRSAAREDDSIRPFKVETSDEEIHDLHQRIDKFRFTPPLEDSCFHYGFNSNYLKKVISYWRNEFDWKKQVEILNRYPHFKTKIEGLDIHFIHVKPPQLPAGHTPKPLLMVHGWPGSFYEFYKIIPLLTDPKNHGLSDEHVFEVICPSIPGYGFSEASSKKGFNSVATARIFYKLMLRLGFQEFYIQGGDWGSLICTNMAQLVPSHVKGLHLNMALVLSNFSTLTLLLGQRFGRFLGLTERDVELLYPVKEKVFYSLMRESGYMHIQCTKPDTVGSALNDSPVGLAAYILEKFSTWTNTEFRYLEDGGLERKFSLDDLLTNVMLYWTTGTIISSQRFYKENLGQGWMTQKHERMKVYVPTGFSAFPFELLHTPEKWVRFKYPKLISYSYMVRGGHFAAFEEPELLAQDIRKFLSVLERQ

[3] = biological target: T2, Bifunctional epoxide hydrolase 2 (Homo sapiens, UniProt P34913); assay: Inhibition of human soluble epoxide hydrolase
T2 sequence (P34913 whole entry): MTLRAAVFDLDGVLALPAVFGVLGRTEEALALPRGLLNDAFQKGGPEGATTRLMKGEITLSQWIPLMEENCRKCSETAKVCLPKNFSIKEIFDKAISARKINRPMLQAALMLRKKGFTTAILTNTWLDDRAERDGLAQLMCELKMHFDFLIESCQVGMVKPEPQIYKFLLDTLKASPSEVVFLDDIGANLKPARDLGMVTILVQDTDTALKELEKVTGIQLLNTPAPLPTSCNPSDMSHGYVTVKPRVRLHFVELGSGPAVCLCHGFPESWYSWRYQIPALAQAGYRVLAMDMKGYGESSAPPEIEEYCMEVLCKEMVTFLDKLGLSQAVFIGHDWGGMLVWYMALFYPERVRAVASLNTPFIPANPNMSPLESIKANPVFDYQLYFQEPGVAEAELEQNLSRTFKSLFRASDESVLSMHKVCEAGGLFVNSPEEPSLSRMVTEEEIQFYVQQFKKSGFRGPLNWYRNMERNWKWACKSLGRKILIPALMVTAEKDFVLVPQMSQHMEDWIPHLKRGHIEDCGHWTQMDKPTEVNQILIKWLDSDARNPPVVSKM

[4] = biological target: Sodium channel protein type 5 subunit alpha (Homo sapiens, UniProt Q14524); assay: Inhibition of Voltage-gated sodium channel subunit alpha Nav1.5
[5] = Inhibition of potassium channel IKr
[6] = Bioavailability in rat at 1 mg/kg, iv and 2 mg/kg, po; type: ADME, organism-based; conditions: in vivo
Cytochrome P450 2C9 = Cytochrome P450 2C9 (Homo sapiens, UniProt P11712); assay: Inhibition of CYP2C9; type: ADME
[7] = Clearance in rat at 1 mg/kg, iv and 2 mg/kg, po; type: ADME, organism-based; conditions: in vivo
Cytochrome P450 3A4 = Cytochrome P450 3A4 (Homo sapiens, UniProt P08684); assay: Inhibition of CYP3A4; type: ADME
[8] = biological target: T3, Bifunctional epoxide hydrolase 2 (Rattus norvegicus, UniProt P80299); assay: Inhibition of rat soluble epoxide hydrolase
T3 sequence (P80299 whole entry): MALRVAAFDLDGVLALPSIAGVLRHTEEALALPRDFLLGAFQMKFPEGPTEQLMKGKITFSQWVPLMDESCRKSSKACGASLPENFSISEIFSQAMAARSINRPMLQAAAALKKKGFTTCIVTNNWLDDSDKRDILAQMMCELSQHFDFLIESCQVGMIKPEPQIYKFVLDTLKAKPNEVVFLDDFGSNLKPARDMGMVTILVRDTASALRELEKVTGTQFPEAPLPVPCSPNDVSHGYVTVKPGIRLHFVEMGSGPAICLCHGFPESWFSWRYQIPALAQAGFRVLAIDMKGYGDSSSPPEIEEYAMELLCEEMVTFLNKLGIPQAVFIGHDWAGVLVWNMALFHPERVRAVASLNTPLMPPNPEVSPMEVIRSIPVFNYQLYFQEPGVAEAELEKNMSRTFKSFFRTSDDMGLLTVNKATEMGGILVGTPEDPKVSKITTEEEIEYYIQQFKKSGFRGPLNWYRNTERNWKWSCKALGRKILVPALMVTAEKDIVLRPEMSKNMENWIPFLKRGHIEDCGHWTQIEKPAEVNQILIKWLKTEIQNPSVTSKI

[9] = Half life in rat at 1 mg/kg, iv and 2 mg/kg, po; type: ADME, organism-based; conditions: in vivo
[10] = biological target: T2, Bifunctional epoxide hydrolase 2; assay: Inhibition of human soluble epoxide hydrolase in HEK293 cells assessed as DHET production; type: cell-based
Rattus norvegicus [11] = assay: Plasma concentration in spontaneously hypertensive rat plasma at 50 mg/kg, po; type: ADME, organism-based; parameters: dose 50 mg/kg, route oral; conditions: in vivo
[12] = Plasma concentration in spontaneously hypertensive rat plasma at 300 mg/kg, after 2 hrs; type: ADME, organism-based; parameters: dose 300 mg/kg
[13] = Plasma concentration in spontaneously hypertensive rat plasma at 300 mg/kg, after 24 hrs; type: ADME, organism-based; parameters: dose 300 mg/kg
Rattus norvegicus [14] = assay: Ex vivo inhibition of DHET production in spontaneously hypertensive rat plasma at 50 mg/kg, po after 0.5 to 6 hrs; type: functional
[15] = Plasma concentration in spontaneously hypertensive rat plasma at 300 mg/kg, after 5 hrs; type: ADME, organism-based; parameters: dose 300 mg/kg
Rattus norvegicus [16] = assay: Antihypertensive activity in spontaneously hypertensive rat assessed as change in systolic blood pressure at 300 mg/kg, po; type: functional, organism-based; parameters: dose 300 mg/kg; conditions: Artery
Rattus norvegicus [17] = assay: Antihypertensive activity in spontaneously hypertensive rat assessed as change in pulse pressure at 300 mg/kg, po; type: functional, organism-based; parameters: dose 300 mg/kg
Rattus norvegicus [18] = assay: Antihypertensive activity in spontaneously hypertensive rat assessed as change in heart rate at 300 mg/kg, po; type: functional, organism-based; parameters: dose 300 mg/kg
Rattus norvegicus [19] = assay: Antihypertensive activity in spontaneously hypertensive rat assessed as change in diastolic blood pressure at 300 mg/kg, po; type: functional, organism-based; parameters: dose 300 mg/kg; conditions: Artery

Cytochrome P450 2D6, sequence (P10635 whole entry): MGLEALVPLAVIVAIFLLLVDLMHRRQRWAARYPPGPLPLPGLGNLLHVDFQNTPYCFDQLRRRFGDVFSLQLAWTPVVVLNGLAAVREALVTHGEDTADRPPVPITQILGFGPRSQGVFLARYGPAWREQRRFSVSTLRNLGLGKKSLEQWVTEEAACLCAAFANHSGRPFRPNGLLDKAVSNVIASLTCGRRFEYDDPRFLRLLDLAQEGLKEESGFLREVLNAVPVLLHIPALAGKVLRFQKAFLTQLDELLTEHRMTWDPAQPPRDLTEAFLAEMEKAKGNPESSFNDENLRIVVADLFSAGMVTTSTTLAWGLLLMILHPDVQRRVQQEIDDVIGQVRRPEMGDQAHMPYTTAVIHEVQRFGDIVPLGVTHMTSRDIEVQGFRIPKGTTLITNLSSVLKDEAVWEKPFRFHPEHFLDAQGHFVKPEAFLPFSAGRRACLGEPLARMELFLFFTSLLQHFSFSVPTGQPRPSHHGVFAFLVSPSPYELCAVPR
Cytochrome P450 2C9, sequence (P11712 whole entry): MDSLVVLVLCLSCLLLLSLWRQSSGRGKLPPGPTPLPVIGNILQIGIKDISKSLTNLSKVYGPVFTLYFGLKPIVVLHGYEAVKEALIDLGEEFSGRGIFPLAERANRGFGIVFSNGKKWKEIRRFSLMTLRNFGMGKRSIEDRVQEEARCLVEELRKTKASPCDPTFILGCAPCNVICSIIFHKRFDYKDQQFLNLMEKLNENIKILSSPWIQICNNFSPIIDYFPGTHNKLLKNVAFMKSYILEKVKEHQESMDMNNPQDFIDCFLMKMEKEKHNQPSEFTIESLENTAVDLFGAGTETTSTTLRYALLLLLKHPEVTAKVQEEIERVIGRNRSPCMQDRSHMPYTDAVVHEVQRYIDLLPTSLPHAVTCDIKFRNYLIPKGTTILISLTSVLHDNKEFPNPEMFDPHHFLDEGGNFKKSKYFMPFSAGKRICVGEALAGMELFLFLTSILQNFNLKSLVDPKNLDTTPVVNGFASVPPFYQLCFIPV
Sodium channel protein type 5 subunit alpha, sequence (Q14524 whole entry): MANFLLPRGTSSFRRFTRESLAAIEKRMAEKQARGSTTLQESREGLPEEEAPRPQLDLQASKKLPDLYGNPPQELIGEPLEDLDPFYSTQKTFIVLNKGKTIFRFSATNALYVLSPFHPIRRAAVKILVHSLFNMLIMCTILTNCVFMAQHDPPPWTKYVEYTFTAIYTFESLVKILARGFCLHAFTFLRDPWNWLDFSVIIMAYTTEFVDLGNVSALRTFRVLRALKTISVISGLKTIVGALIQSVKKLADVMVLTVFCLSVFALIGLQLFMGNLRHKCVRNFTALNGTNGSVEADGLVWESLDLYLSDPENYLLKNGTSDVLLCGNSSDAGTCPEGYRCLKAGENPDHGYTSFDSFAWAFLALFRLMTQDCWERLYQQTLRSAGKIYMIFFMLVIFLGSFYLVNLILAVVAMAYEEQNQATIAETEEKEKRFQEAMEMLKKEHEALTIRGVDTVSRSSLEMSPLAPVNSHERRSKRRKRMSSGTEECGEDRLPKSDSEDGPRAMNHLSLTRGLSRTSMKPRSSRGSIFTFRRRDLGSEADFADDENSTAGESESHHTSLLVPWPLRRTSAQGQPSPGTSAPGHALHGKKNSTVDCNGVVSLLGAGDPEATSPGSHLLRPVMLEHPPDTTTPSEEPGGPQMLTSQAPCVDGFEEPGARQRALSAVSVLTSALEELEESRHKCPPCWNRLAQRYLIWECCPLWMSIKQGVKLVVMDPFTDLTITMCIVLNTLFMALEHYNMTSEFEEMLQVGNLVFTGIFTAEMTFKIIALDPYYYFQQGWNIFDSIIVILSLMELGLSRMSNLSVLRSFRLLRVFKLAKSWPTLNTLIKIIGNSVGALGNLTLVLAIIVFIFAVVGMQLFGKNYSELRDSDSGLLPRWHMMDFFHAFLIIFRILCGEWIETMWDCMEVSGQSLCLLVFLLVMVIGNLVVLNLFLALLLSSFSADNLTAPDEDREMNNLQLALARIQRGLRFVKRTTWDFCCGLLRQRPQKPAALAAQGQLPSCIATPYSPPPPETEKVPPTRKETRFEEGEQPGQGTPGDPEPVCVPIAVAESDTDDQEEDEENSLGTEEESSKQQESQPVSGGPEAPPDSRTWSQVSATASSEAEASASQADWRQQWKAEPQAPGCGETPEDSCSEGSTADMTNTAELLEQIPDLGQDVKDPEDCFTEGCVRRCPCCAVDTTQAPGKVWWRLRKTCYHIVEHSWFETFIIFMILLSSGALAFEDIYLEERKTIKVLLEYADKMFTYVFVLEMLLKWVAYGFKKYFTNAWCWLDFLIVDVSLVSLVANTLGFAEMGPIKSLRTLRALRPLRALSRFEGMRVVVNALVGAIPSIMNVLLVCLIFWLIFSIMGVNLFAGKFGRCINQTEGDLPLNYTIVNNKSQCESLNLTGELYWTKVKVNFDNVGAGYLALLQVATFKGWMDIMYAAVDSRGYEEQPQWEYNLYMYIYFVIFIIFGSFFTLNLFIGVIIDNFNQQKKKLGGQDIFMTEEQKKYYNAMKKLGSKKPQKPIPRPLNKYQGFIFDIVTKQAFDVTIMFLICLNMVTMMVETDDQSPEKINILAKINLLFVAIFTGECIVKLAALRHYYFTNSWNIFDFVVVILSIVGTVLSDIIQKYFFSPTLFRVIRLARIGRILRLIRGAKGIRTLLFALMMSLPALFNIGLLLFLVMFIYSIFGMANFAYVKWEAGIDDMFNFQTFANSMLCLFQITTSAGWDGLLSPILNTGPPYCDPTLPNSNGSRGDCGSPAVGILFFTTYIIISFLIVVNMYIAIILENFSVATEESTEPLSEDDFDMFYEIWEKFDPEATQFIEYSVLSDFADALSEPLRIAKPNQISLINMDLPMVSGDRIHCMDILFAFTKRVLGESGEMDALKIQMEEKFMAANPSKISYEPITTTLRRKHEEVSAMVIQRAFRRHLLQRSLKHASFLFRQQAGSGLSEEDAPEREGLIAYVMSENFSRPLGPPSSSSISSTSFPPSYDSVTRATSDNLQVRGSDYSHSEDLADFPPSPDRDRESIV
Cytochrome P450 3A4, sequence (P08684 whole entry): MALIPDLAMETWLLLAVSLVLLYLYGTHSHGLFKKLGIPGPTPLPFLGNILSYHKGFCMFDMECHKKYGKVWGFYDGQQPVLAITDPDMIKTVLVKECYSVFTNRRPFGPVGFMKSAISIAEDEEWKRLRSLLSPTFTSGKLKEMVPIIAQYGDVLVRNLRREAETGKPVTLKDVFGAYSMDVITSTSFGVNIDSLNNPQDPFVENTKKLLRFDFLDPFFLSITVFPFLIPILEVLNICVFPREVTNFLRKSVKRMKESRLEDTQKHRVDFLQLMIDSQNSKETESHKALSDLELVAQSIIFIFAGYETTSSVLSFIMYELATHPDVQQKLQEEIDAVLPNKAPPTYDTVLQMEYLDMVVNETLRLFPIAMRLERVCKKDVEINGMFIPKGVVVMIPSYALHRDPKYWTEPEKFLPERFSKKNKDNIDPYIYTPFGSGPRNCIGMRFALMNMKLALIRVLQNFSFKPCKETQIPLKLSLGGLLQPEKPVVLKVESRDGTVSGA

IC50 (Cytochrome P450 2D6): > 10 µM | IC50 [1]: > 30 µM | Vd [2]: 1.6 L/kg | IC50 (Epoxide hydrolase 1): > 100 µM | IC50 [3]: 0.002 µM | bioavailability [6]: 61% | IC50 (Cytochrome P450 2C9): 7.6 µM | clearance [7]: 0.9 mL/min/kg | IC50 (Cytochrome P450 3A4): > 10 µM | IC50 [8]: 0.019 µM | half-life [9]: 18 h | IC50 [10]: < 0.001 µM
SMILES: CS(=O)(=O)c1ccc2c(c1)CCC1(CCN(C(=O)c3ccc(C(F)(F)F)cc3)CC1)O2
Activity (Blood): 66% | IC50 [4]: > 10 µM | IC50 [5]: 25 µM

concentration (Rattus norvegicus [11]): 800 nM | concentration at 2 h [12]: 3600 nM | concentration at 24 h [13]: 1700 nM | Vd [2]: 3.1 L/kg | bioavailability [6]: 61% | clearance [7]: 47 mL/min/kg | half-life [9]: 1.5 h | concentration at 5 h [15]: 2700 nM
SMILES: O=C1CC2(CCN(C(=O)N[C@H]3C[C@@H]3c3ccccc3)CC2)Oc2ccccc21 (racemic) [listing 1 of 2 here]
Activity (Blood): 8.6% | inhibition in vivo at 50 mg/kg (Rattus norvegicus [14]): > 95%

SMILES: O=C1CC2(CCN(C(=O)N[C@H]3C[C@@H]3c3ccccc3)CC2)Oc2ccccc21 (racemic) [listing 2 of 2 here]
Activity (Rattus norvegicus [16]): inactive | Activity (Rattus norvegicus [17]): inactive | Activity (Rattus norvegicus [18]): inactive | Activity (Rattus norvegicus [19]): inactive
